Like-named read-outs stand apart in the source and are kept apart here.
Tests used:
HIV-13B in MT4 cells = test: Anti-HIV activity (inhibition of cytopathic effect of HIV) in MT4 cells; assay type: cell-based; details: Human immunodeficiency virus 1, concentration giving 50% inhibition of cytopathic effect of HIV
Text: (§1) The IC50 is the concentration of compound that gives 50% inhibition of the cytopathic effect of HIV. The LC50 is the concentration of compound at which 50% of the cells remain viable.

HIV-1 protease = HIV-1 protease (Human immunodeficiency virus type 1 group M subtype B, UniProt P04585); test: Fluorogenic assay for screening inhibitors of HIV protease
[1] = Cytotoxicity in MT4 cells; assay type: cell-based; details: human, concentration at which 50% of the cells remain viable, read-out: LC50 (the source's name)
Text: as §1

[2] = pH 4.5, read-out: Percent Inhibition

Row | IC50 (HIV-1 protease) [nM] | Structure (SMILES) | IC50 (HIV-13B in MT4 cells) [nM] | inhibition at 0.0005 µM (HIV-1 protease; [2]) [%] | CC50 [1] [nM] | also measured
1 | 0.5 | CC(C)c1nc(COC(=O)N[C@H](C(=O)N[C@@H](Cc2ccccc2)[C@@H](O)CN(Cc2ccc(F)cc2)NC(=O)OC(C)(C)C)C(C)C)co1 [Example 51D] | 209 to 274 | 50 |  | 
2 |  | CC(C)c1nc(CN(C)C(=O)N[C@H](C(=O)NN(Cc2cccc(O)c2)C[C@H](O)[C@H](Cc2ccccc2)NC(=O)OCc2cncs2)C(C)C)cs1 [Example 56B, 5S-(((5-Thiazolyl)methoxy)carbonyl)amino-2-N-((((N-methyl-N-2-isopropyl-4-thiazolyl)methyl)amino)carbonyl)-L-valinylamino-4S-hydroxy-1-(3-hydroxyphenyl)-6-phenyl-2-azahexane] |  | 49 |  | 
3 | 3.9 | CC(C)(C)OC(=O)NN(Cc1ccccc1)C[C@H](O)[C@H](Cc1ccccc1)NC(=O)OCc1cccnc1 [Example 4B, 5S-((3-Pyridinyl)methoxycarbonyl)amino-2-t-butyloxycarbonylamino-4S-hydroxy-1,6-diphenyl-2-azahexane] |  |  |  | inhibition at 0.0039 µM (HIV-1 protease; [2]): 50%
4 |  | CC(C)c1nc(CN(C)C(=O)N[C@H](C(=O)NN(Cc2ccccc2)C[C@H](O)[C@H](Cc2ccccc2)NC(=O)OCc2cncs2)C(C)C)cs1 [Example 8, 5S-(((5-Thiazolyl)methoxy)carbonyl)amino-2-N-((N-methyl-N-((2-isopropyl-4-thiazolyl)methyl)amino)carbonyl)-L-valinylamino-4S-hydroxy-1,6-diphenyl-2-azahexane] | 100 to 110 | 77 | 17000 | 
5 | 2.1 | CC(C)(C)OC(=O)NN(Cc1ccoc1)C[C@H](O)[C@H](Cc1ccccc1)NC(=O)OCc1cncs1 [Example 47] |  |  |  | inhibition at 0.0021 µM (HIV-1 protease; [2]): 50%
6 | 7.5 | CC(C)(C)OC(=O)NN(Cc1ccc(O)cc1)C[C@H](O)[C@H](Cc1ccccc1)NC(=O)OCc1ccccc1 [Example 52, 5S-(Benzyloxycarbonyl)amino-2-(t-butyloxycarbonyl)amino-4S-hydroxy-1-(4-hydroxyphenyl)-6-phenyl-2-azahexane] |  |  |  | inhibition at 0.0075 µM (HIV-1 protease; [2]): 50%
7 |  | CC(C)c1nc(CN(C)C(=O)N[C@H](C(=O)N[C@@H](Cc2ccccc2)[C@@H](O)CN(Cc2ccccc2)NC(=O)OC(C)(C)C)C(C)C)co1 [Example 9F, 5S-N-((N-Methyl-N-((2-isopropyl-4-oxazolyl)methyl)amino)carbonyl)-L-valinylamino-2-N-(t-butyloxycarbonyl)amino-4S-hydroxy-1,6-diphenyl-2-azahexane] | 460 to 1000 | 61 | 19000 | 
8 |  | COc1cccc(CN(C[C@H](O)[C@H](Cc2ccccc2)NC(=O)OCc2ccccc2)NC(=O)OC(C)(C)C)c1 [Example 17B] |  |  |  | inhibition at 0.012 µM (HIV-1 protease; [2]): 50%; IC50 (HIV-1 protease; read-out: Inhibitor Concentration (at 50 Percent Inhibition), concentration printed with 50 percent inhibition, pH 4.5, 30° C.): 12 nM
9 | 9.9 | CC(C)(C)OC(=O)NN(Cc1ccc(OCCN2CCOCC2)cc1)C[C@H](O)[C@H](Cc1ccccc1)NC(=O)OCc1ccccc1 [Example 57C, 2-(t-Butyloxycarbonyl)amino-5S-(benzyloxycarbonyl)amino-4S-hydroxy-1-(4-((2-morpholinyl)ethoxy)phenyl)-6-phenyl-2-azahexane] |  |  |  | inhibition at 0.0099 µM (HIV-1 protease; [2]): 50%
10 |  | CC(C)c1nc(CN(C)C(=O)N[C@H](C(=O)NN(Cc2ccccc2)C[C@H](O)[C@H](Cc2ccccc2)NC(=O)OCc2ccccc2)C(C)C)co1 [Example 11, 5S-(Benzyloxycarbonyl)amino-2-N-((N-methyl-N-((2-isopropyl-4-oxazolyl)methyl)amino)carbonyl)-L-valinylamino-4S-hydroxy-1,6-diphenyl-2-azahexane] | 230 | 69 | 18000 | 
11 |  | CC(C)c1nc(CN(C)C(=O)N[C@H](C(=O)NN(Cc2ccc(O)cc2)C[C@H](O)[C@H](Cc2ccccc2)NC(=O)OCc2cncs2)C(C)C)cs1 [Example 54B] | 37 to 67 | 56 |  | 
12 | 7.4 | CC(C)(C)OC(=O)NN(Cc1cccc(O)c1)C[C@H](O)[C@H](Cc1ccccc1)NC(=O)OCc1ccccc1 [Example 55C, 5S-(Benzyloxycarbonyl)amino-2-(t-butyloxycarbonyl)amino-4S-hydroxy-1-(3-hydroxyphenyl)-6-phenyl-2-azahexane] |  |  |  | inhibition at 0.0074 µM (HIV-1 protease; [2]): 50%
13 |  | CC(C)c1nc(CN(C)C(=O)N[C@H](C(=O)NN(Cc2ccccc2)C[C@H](O)[C@H](Cc2ccccc2)NC(=O)OCc2cncs2)C(C)C)co1 [Example 12, 5S-((5-Thiazolyl)methoxy)Carbonylamino-2-N-((N-methyl-N-((2-isopropyl-4-oxazolyl)methyl)amino)carbonyl)-L-valinylamino-4S-hydroxy-1,6-diphenyl-2-azahexane] | 100 to 105 | 78 | 53000 | 
14 |  | CC(C)c1nc(COC(=O)N[C@H](C(=O)N[C@@H](Cc2ccccc2)[C@@H](O)CN(Cc2ccc(O)cc2)NC(=O)OC(C)(C)C)C(C)C)co1 [Example 53, 5S-(((2-Isopropyl-4-oxazolyl)methoxycarbonyl)-valinyl)amino-2-(t-butyloxycarbonyl)amino-4S-hydroxy-1-(4-hydroxyphenyl)-6-phenyl-2-azahexane] | 55 | 57 |  | 
15 |  | CC(C)c1nc(COC(=O)N[C@H](C(=O)NN(Cc2ccoc2)C[C@H](O)[C@H](Cc2ccccc2)NC(=O)OCc2cncs2)C(C)C)co1 [Example 49E, 5S-(((5-Thiazolyl)methoxy)carbonyl)amino-2-((N-2-isopropyl-4-oxazolyl)methoxycarbonyl)amino-4S-hydroxy-1-(3-furanyl)-6-phenyl-2-azahexane] | 29 to 32 | 75 |  | 
16 |  | COc1ccc(CN(C[C@H](O)[C@H](Cc2ccccc2)NC(=O)[C@@H](NC(=O)OCc2ccccn2)C(C)C)NC(=O)OC(C)(C)C)cc1 [Example 15, 5S-N-((2-Pyridinyl)methoxycarbonyl)-L-valinylamino-2-N-(t-butyloxycarbonyl)amino-4S-hydroxy-1-p-methoxyphenyl-6-phenyl-2-azahexane] | 440 to 600 | 44 | > 100000 | 
17 |  | CC(C)c1nc(COC(=O)N[C@H](C(=O)NN(Cc2ccccc2)C[C@H](O)[C@H](Cc2ccccc2)NC(=O)OCc2cncs2)C(C)C)co1 [Example 50, 5 S-(((5-Thiazolyl)methoxy)carbonyl)amino-2-((N-2-isopropyl-4-oxazolyl)methoxycarbonyl)amino-4S-hydroxy-1,6-diphenyl-2-azahexane] | 16 to 31 | 73 |  | 
18 |  | CC(C)c1nc(CN(C)C(=O)N[C@H](C(=O)NN(Cc2ccoc2)C[C@H](O)[C@H](Cc2ccccc2)NC(=O)OCc2cncs2)C(C)C)cs1 [Example 48, 5S-(((5-Thiazolyl)methoxy)carbonyl)amino-2-N-(((N-methyl-N-( (2-isopropyl-4-thiazolyl)methyl)amino)carbonyl)-L-valinyl)amino-4S-hydroxy-1-(3-furanyl)-6-phenyl-2-azahexane] | 88 to 114 | 66 |  | 
19 | 18 | CC(C)(C)OC(=O)NN(Cc1ccc(-c2ccccc2)cc1)C[C@H](O)[C@H](Cc1ccccc1)NC(=O)OCc1ccccc1 [Example 58, 2-(t-Butyloxycarbonyl)amino-5S-(benzyloxycarbonyl)amino-4S-hydroxy-1-(4-biphenyl)-6-phenyl-2-azahexane] |  |  |  | inhibition at 0.018 µM (HIV-1 protease; [2]): 50%
20 | 10 | COc1ccc(CN(C[C@H](O)[C@H](Cc2ccccc2)NC(=O)OCc2ccccc2)NC(=O)OC(C)(C)C)cc1 [Example 14B, 5S-N-(Benzyloxycarbonyl)amino-2-N-(t-butyloxycarbonyl)amino-4S-hydroxy-1-p-methoxyphenyl-6-phenyl-2-azahexane] |  |  |  | inhibition at 0.01 µM (HIV-1 protease; [2]): 50%
21 |  | CC(C)c1nc(CN(C)C(=O)N[C@H](C(=O)NN(Cc2ccccc2)C[C@H](O)[C@H](Cc2ccccc2)NC(=O)OCc2ccccc2)C(C)C)cs1 [Example 6H, 5S-(Benzyloxycarbonyl)amino-2-N-(((N-methyl-N-((2-isopropyl-4-thiazolyl)methyl)amino)carbonyl)-L-valinyl)amino-4S-hydroxy-1,6-diphenyl-2-azahexane] |  | 73 |  | 

Row | Structure (SMILES) | IC50 (HIV-1 protease) [nM] | IC50 (HIV-13B in MT4 cells) [nM] | inhibition at 0.0005 µM (HIV-1 protease; [2]) [%] | CC50 [1] [nM] | also measured
22 | CC(C)[C@H](NC(=O)OCc1ccccn1)C(=O)N[C@@H](Cc1ccccc1)[C@@H](O)CN(Cc1ccccc1)NC(=O)OC(C)(C)C [Example 2E, 5S-N-((2-Pyridinyl)methoxycarbonyl)valinylamino-2-t-butyloxycarbonylamino-4S-hydroxy-1,6-diphenyl-2-azahexane] | 0.5 | 780 to 1230 | 50 | 56000 | 
23 | CC(C)(C)OC(=O)NN(Cc1ccccc1)C[C@H](O)[C@H](Cc1ccccc1)NC(=O)OCc1ccccc1 [Example 1F, 2-(t-Butyloxycarbonyl)amino-4S-hydroxy-5S-(benzyloxycarbonyl)amino-1,6-diphenyl-2-azahexane] | 5.1 | 36000 |  | > 100000 | inhibition at 0.0051 µM (HIV-1 protease; [2]): 50%
24 | COc1ccc(CN(C[C@H](O)[C@H](Cc2ccccc2)NC(=O)[C@@H](NC(=O)OCc2ccccn2)C(C)C)NC(=O)OCc2cccnc2)cc1 [Example 16, 5S-N-((2-Pyridinyl)methoxycarbonyl)-L-valinylamino-2-N-((3-pyridinyl)methoxycarbonyl)amino-4S-hydroxy-1-p-methoxyphenyl-6-phenyl-2-azahexane] | 0.5 | 200 to 270 | 50 | 57000 | 
25 | CCc1cccc(CN(C)C(=O)N[C@H](C(=O)NN(Cc2ccccc2)C[C@H](O)[C@H](Cc2ccccc2)NC(=O)OCc2ccccc2)C(C)C)n1 [Example 10, 5S-(Benzyloxycarbonyl)amino-2-N-((N-methyl-N-((6-ethyl-2-pyridinyl)methyl)amino)carbonyl)-L-valinylamino-4S-hydroxy-1,6-diphenyl-2-azahexane] | 0.5 | 830 to 1100 | 50 | 19000 | 

— patent US5461067A, “Retroviral protease inhibiting compounds” (priority 1994, dated 1995)
